Laboratory results: US11919901B2 (Syndax Pharmaceuticals, Inc., priority 2021, dated 2024)

Tested on: MV4-11 cells
Assay: Cell proliferation assay MV4;11 (CellTiter-Glo, 72 hours)
Assay type: cell-based
Settings: Homo sapiens; MV4;11 leukemia cell line, 72 hours; read-out: MV4; 11 IC50
Experimental: Compounds were evaluated for its capacity to inhibit the proliferation of the MLLr leukemia cell line MV4-11 that harbors an MLL1-AF4 fusion protein. MV4-11 cells were cultured for 72 hours with limiting dilutions of compounds and viability was measured using CellTiter-Glo.
Compounds were dissolved to obtain as 10 mM solution in DMSO. The stock was diluted 1:5 to the top concentration of 2 mM in 100% DMSO. For IC50 determination, serial 1:3.16 dilutions were prepared in 100% DMSO by diluting 20 μL into 43.5 μL of DMSO for 8 concentrations. Each prepared DMSO solution were further diluted 1:500 in the cell culture media to obtain the 2× dosing solutions. The final concentrations of tested compounds in the cell culture media ranged from 0.632 nM to 2000 nM.
MV4-11 cells were cultured in IMDM with 10% FBS and 1× Penicillin-Streptomycin at 5% CO2 and 37° C. A cell suspension was prepared containing 15,000 cells/ml in the culture medium and 100 μL of this suspension was added per well to a 96-well cell culture plate. Then, 100 μL of 2× dosing media containing test compounds were added bringing the total volume to 200 μL. These cells were cultured for 72 hours at 37° C. and 5% CO2 in a humidified incubator.
After 72 hours, the cultured cells were mixed and 100p L was transferred to a 96-well black plate. Cell Titer Glo (100 μl) was then added to this plate. The plate was mixed with shaking for 15 mins at RT, the luminescence was then measured using Tecan Spark 20M spectrophotometer. Cell Viability (%) was determined by RLU of test/RLU average vehicle control*100 and % max inhibition was determined by 100−(% cell viability remaining at the top concentration of compound).

C[C@@H]1COC[C@@H](C)N1C(=O)c1cc(F)ccc1Oc1cncnc1N1CC2(CCN(C[C@@H]3CC[C@@H](NS(=O)(=O)C4CC4)CO3)CC2)C1 [Example 31, N-((3R,6S)-6-((2-(5-(2-((3R,5R)-3,5-dimethylmorpholine-4-carbonyl)-4-fluorophenoxy)pyrimidin-4-yl)-2,7-diazaspiro[3.5]nonan-7-yl)methyl)tetrahydro-2H-pyran-3-yl)cyclopropanesulfonamide]
IC50: < 100 nM

C[C@@H]1COC[C@@H](C)N1C(=O)c1cc(F)ccc1Oc1cncnc1N1CC2(CCN(C[C@@H]3CC[C@@H](NS(=O)(=O)C4COC4)CO3)CC2)C1 [Example 32, N-((3R,6S)-6-((2-(5-(2-((3R,5R)-3,5-Dimethylmorpholine-4-carbonyl)-4-fluorophenoxy)pyrimidin-4-yl)-2,7-diazaspiro[3.5]nonan-7-yl)methyl)tetrahydro-2H-pyran-3-yl)oxetane-3-sulfonamide]
IC50: 100 to 1000 nM

CCS(=O)(=O)N[C@@H]1CC[C@@H](CN2CCC3(CC2)CN(c2ncncc2Oc2ccc(F)cc2C(=O)N(C(C)C)[C@H]2CCOC2)C3)OC1 [Example 33, 2-((4-(7-(((2S,5R)-5-(Ethylsulfonamido)tetrahydro-2H-pyran-2-yl)methyl)-2,7-diazaspiro[3.5]nonan-2-yl)pyrimidin-5-yl)oxy)-5-fluoro-N-isopropyl-N-((S)-tetrahydrofuran-3-yl)benzamide]
IC50: < 100 nM

CCS(=O)(=O)N[C@@H]1CC[C@@H](CN2CCC3(CC2)CN(c2ncncc2Oc2ccc(F)cc2C(=O)N(CC(F)F)C(C)C)C3)OC1 [Example 34, N-(2,2-Difluoroethyl)-2-((4-(7-(((2S,5R)-5-(ethylsulfonamido)tetrahydro-2H-pyran-2-yl)methyl)-2,7-diazaspiro[3.5]nonan-2-yl)pyrimidin-5-yl)oxy)-5-fluoro-N-isopropylbenzamide]
IC50: < 100 nM

CCS(=O)(=O)N[C@@H]1CC[C@@H](CN2CCC3(CC2)CN(c2ncncc2Oc2ccc(F)cc2C(=O)N(CCOC)C(C)C)C3)OC1 [Example 35, 2-((4-(7-(((2S,5R)-5-(Ethylsulfonamido)tetrahydro-2H-pyran-2-yl)methyl)-2,7-diazaspiro[3.5]nonan-2-yl)pyrimidin-5-yl)oxy)-5-fluoro-N-isopropyl-N-(2-methoxyethyl)benzamide]
IC50: < 100 nM

CCS(=O)(=O)N[C@@H]1CC[C@@H](CN2CCC3(CC2)CN(c2ncncc2Oc2ccc(F)cc2C(=O)N2[C@H](C)CCC[C@@H]2C)C3)OC1 [Example 36, N-((3R,6S)-6-((2-(5-(2-((2S,6R)-2,6-Dimethylpiperidine-1-carbonyl)-4-fluorophenoxy)pyrimidin-4-yl)-2,7-diazaspiro[3.5]nonan-7-yl)methyl)tetrahydro-2H-pyran-3-yl)ethanesulfonamide]
IC50: < 100 nM

CCN(C(=O)c1cc(F)ccc1Oc1cncnc1N1CC2(CCN(C[C@@H]3CC[C@@H](NC(=O)NCC(F)(F)F)CO3)CC2)C1)C(C)C [Example 37, N-Ethyl-5-fluoro-N-isopropyl-2-((4-(7-(((2S,5R)-5-(3-(2,2,2-trifluoroethyl)ureido)tetrahydro-2H-pyran-2-yl)methyl)-2,7-diazaspiro[3.5]nonan-2-yl)pyrimidin-5-yl)oxy)benzamide]
IC50: < 100 nM

CCCNC(=O)N[C@@H]1CC[C@@H](CN2CCC3(CC2)CN(c2ncncc2Oc2ccc(F)cc2C(=O)N(CC)C(C)C)C3)OC1 [Example 38, N-Ethyl-5-fluoro-N-isopropyl-2-((4-(7-(((2S,5R)-5-(3-propylureido)tetrahydro-2H-pyran-2-yl)methyl)-2,7-diazaspiro[3.5]nonan-2-yl)pyrimidin-5-yl)oxy)benzamide]
IC50: 100 to 1000 nM

CCNC(=O)N[C@@H]1CC[C@@H](CN2CCC3(CC2)CN(c2ncncc2Oc2ccc(F)cc2C(=O)N(CC)C(C)C)C3)OC1 [Example 39, N-Ethyl-2-((4-(7-(((2S,5R)-5-(3-ethylureido)tetrahydro-2H-pyran-2-yl)methyl)-2,7-diazaspiro[3.5]nonan-2-yl)pyrimidin-5-yl)oxy)-5-fluoro-N-isopropylbenzamide]
IC50: < 100 nM

C[C@H]1COCCN1C(=O)c1cc(F)ccc1Oc1cncnc1N1CC2(CCN(C[C@@H]3CC[C@@H](NS(=O)(=O)C4CC4)CO3)CC2)C1 [Example 40, N-((3R,6S)-6-((2-(5-(4-Fluoro-2-((S)-3-methylmorpholine-4-carbonyl)phenoxy)pyrimidin-4-yl)-2,7-diazaspiro[3.5]nonan-7-yl)methyl)tetrahydro-2H-pyran-3-yl)cyclopropanesulfonamide]
IC50: 100 to 1000 nM

CCN(C(=O)c1cc(F)ccc1Oc1cncnc1N1CC2(CCN(C[C@@H]3CC[C@@H](NC(=O)NCC(F)F)CO3)CC2)C1)C(C)C [Example 41, 2-((4-(7-(((2S,5R)-5-(3-(2,2-Difluoroethyl)ureido)tetrahydro-2H-pyran-2-yl)methyl)-2,7-diazaspiro[3.5]nonan-2-yl)pyrimidin-5-yl)oxy)-N-ethyl-5-fluoro-N-isopropylbenzamide]
IC50: 100 to 1000 nM

CCN(C(=O)c1cc(F)ccc1Oc1cncnc1N1CC2(CCN(C[C@@H]3CC[C@@H](NC(=O)NCC4CC4)CO3)CC2)C1)C(C)C [Example 42, 2-((4-(7-(((2S,5R)-5-(3-(Cyclopropylmethyl)ureido)tetrahydro-2H-pyran-2-yl)methyl)-2,7-diazaspiro[3.5]nonan-2-yl)pyrimidin-5-yl)oxy)-N-ethyl-5-fluoro-N-isopropylbenzamide]
IC50: 100 to 1000 nM

CCS(=O)(=O)N[C@@H]1CC[C@@H](CN2CCC3(CC2)CN(c2ncncc2Oc2ccc(F)cc2C(=O)N(CCC#N)C(C)C)C3)OC1 [Example 43, N-(2-Cyanoethyl)-2-((4-(7-(((2S,5R)-5-(ethylsulfonamido)tetrahydro-2H-pyran-2-yl)methyl)-2,7-diazaspiro[3.5]nonan-2-yl)pyrimidin-5-yl)oxy)-5-fluoro-N-isopropylbenzamide]
IC50: 100 to 1000 nM

CCS(=O)(=O)N[C@@H]1CC[C@@H](CN2CCC3(CC2)CN(c2ncncc2Oc2ccc(F)cc2C(=O)N(C(C)C)C2CC(F)(F)C2)C3)OC1 [Example 44, N-(3,3-Difluorocyclobutyl)-2-((4-(7-(((2S,5R)-5-(ethylsulfonamido)tetrahydro-2H-pyran-2-yl)methyl)-2,7-diazaspiro[3.5]nonan-2-yl)pyrimidin-5-yl)oxy)-5-fluoro-N-isopropylbenzamide]
IC50: < 100 nM

CCN(C(=O)c1cc(F)ccc1Oc1cncnc1N1CC2(CCN(C[C@@H]3CC[C@@H](NS(=O)(=O)c4ccccc4)CO3)CC2)C1)C(C)C [Example 45, N-Ethyl-5-fluoro-N-isopropyl-2-((4-(7-(((2S,5R)-5-(phenylsulfonamido)tetrahydro-2H-pyran-2-yl)methyl)-2,7-diazaspiro[3.5]nonan-2-yl)pyrimidin-5-yl)oxy)benzamide]
IC50: < 100 nM

CCS(=O)(=O)N[C@@H]1CC[C@@H](CN2CCC3(CC2)CN(c2ncncc2Oc2ccc(F)cc2C(=O)N(C(C)C)[C@@H]2CCOC2)C3)OC1 [Example 46, 2-((4-(7-(((2S,5R)-5-(Ethylsulfonamido)tetrahydro-2H-pyran-2-yl)methyl)-2,7-diazaspiro[3.5]nonan-2-yl)pyrimidin-5-yl)oxy)-5-fluoro-N-isopropyl-N-((R)-tetrahydrofuran-3-yl)benzamide]
IC50: < 100 nM

CC(C)N(CC(F)F)C(=O)c1cc(F)ccc1Oc1cncnc1N1CC2(CCN(C[C@@H]3CC[C@@H](NS(=O)(=O)C4CC4)CO3)CC2)C1 [Example 47, 2-((4-(7-(((2S,5R)-5-(Cyclopropanesulfonamido)tetrahydro-2H-pyran-2-yl)methyl)-2,7-diazaspiro[3.5]nonan-2-yl)pyrimidin-5-yl)oxy)-N-(2,2-difluoroethyl)-5-fluoro-N-isopropylbenzamide]
IC50: < 100 nM

CCS(=O)(=O)N[C@@H]1CC[C@@H](CN2CCC3(CC2)CN(c2ncncc2Oc2ccc(F)cc2C(=O)N(C(C)C)C2COC2)C3)OC1 [Example 48, 2-((4-(7-(((2S,5R)-5-(Ethylsulfonamido)tetrahydro-2H-pyran-2-yl)methyl)-2,7-diazaspiro[3.5]nonan-2-yl)pyrimidin-5-yl)oxy)-5-fluoro-N-isopropyl-N-(oxetan-3-yl)benzamide]
IC50: < 100 nM

CCN(C(=O)c1cc(F)ccc1Oc1cncnc1N1CC2(CCN(C[C@@H]3CC[C@@H](NS(=O)(=O)N(C)C)CO3)CC2)C1)C(C)C [Example 49, 2-((4-(7-(((2S,5R)-5-((N,N-Dimethylsulfamoyl)amino)tetrahydro-2H-pyran-2-yl)methyl)-2,7-diazaspiro[3.5]nonan-2-yl)pyrimidin-5-yl)oxy)-N-ethyl-5-fluoro-N-isopropylbenzamide]
IC50: < 100 nM

COCCN(C(=O)c1cc(F)ccc1Oc1cncnc1N1CC2(CCN(C[C@@H]3CC[C@@H](NS(=O)(=O)C4CC4)CO3)CC2)C1)C(C)C [Example 51, 2-((4-(7-(((2S,5R)-5-(Cyclopropanesulfonamido)tetrahydro-2H-pyran-2-yl)methyl)-2,7-diazaspiro[3.5]nonan-2-yl)pyrimidin-5-yl)oxy)-5-fluoro-N-isopropyl-N-(2-methoxyethyl)benzamide]
IC50: < 100 nM
